From ChEMBL document CHEMBL1201862, “PubChem BioAssay data set” (2004)
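Grown in 96-well plates, cells were treated for 48 hours with each compound at five concentrations. Insufficient inhibition: endpoint recorded as highest concentration tested. GI50: concentration for 50% inhibition of growth.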 Active and inactive are the calls of the source. Rule as the data show it: active = GI50 up to about 1.1 µM and inactive = higher.

Tests used:
Experiment in all cases: NCI-60 cell line screen, 48 h
[1] = test system: CAKI-1
[2] = test system: CCRF-CEM
[3] = test system: HCC 2998
[4] = test system: HCT-116
[5] = test system: K562
[6] = test system: KM12
[7] = test system: MDA-MB-231
[8] = test system: MDA-MB-435
[9] = test system: NCI-H23
[10] = test system: NCI-H522
[11] = test system: SF-539
[12] = test system: SK-OV-3
[13] = test system: SN12C
[14] = test system: SNB-75
[15] = test system: T47D
[16] = test system: UACC-257
[17] = test system: UACC-62
[18] = test system: MDA-N
[19] = test system: Malme-3M
[20] = test system: Hs-578T

| SMILES | GI50 [1] | GI50 [2] | GI50 [3] | GI50 [4] | GI50 [5] | GI50 [6] | GI50 [7] | GI50 [8] | GI50 [9] | GI50 [10] | GI50 [11] | GI50 [12] | GI50 [13] | GI50 [14] | GI50 [15] | GI50 [16] | GI50 [17] | GI50 [18] | GI50 [19] | GI50 [20] |
| --- | --- | --- | --- | --- | --- | --- | --- | --- | --- | --- | --- | --- | --- | --- | --- | --- | --- | --- | --- | --- |
| Cc1cc(Cc2cc(C)c(NC(=O)C(=O)C3CCC4=C(SC5C=CC=CC5N4)C3=O)c(C(C)C)c2)cc(C(C)C)c1NC(=O)C(=O)C1CCC2=C(SC3C=CC=CC3N2)C1=O (stereo not given) | 53.6 µM (inactive) | 46.5 µM (inactive) | 30.5 µM (inactive) | 47 µM (inactive) | 55.7 µM (inactive) | 43.3 µM (inactive) | 95.9 µM (inactive) | > 100 µM (inactive) | 41.4 µM (inactive) | 19.9 µM (inactive) | 12.5 µM (inactive) | > 100 µM (inactive) | 84.1 µM (inactive) | 94.6 µM (inactive) | 29.2 µM (inactive) | > 100 µM (inactive) | 53.1 µM (inactive) | – | – | – |
| Cn1c(=O)c2nc3nnc(C#N)c(N)n3c2n(C)c1=O | 51.8 µM (inactive) | 67.8 µM (inactive) | > 100 µM (inactive) | > 100 µM (inactive) | > 100 µM (inactive) | > 100 µM (inactive) | > 100 µM (inactive) | > 100 µM (inactive) | – | > 100 µM (inactive) | 90.2 µM (inactive) | > 100 µM (inactive) | > 100 µM (inactive) | – | 33 µM (inactive) | – | > 100 µM (inactive) | > 100 µM (inactive) | 25.2 µM (inactive) | – |
| O=C1c2ccc3c4ccccc4n(-c4ccccc4)c3c2C(=O)N1c1ccc(Cl)cc1 | > 100 µM (inactive) | > 100 µM (inactive) | > 100 µM (inactive) | > 100 µM (inactive) | > 100 µM (inactive) | > 100 µM (inactive) | – | – | 8.95 µM (inactive) | > 100 µM (inactive) | > 100 µM (inactive) | > 100 µM (inactive) | > 100 µM (inactive) | > 100 µM (inactive) | – | > 100 µM (inactive) | > 100 µM (inactive) | – | > 100 µM (inactive) | – |
| O=C(CBr)N1CCC2(CC1)SSC1(CCN(C(=O)CBr)CC1)S2 | – | 0.15 µM (active) | – | 0.373 µM (active) | 0.647 µM (active) | 1.7 µM (inactive) | 2.33 µM (inactive) | 2.12 µM (inactive) | 1.6 µM (inactive) | – | 1.68 µM (inactive) | 1.41 µM (inactive) | 1.93 µM (inactive) | 2.01 µM (inactive) | – | 2.76 µM (inactive) | 1.47 µM (inactive) | 1.31 µM (inactive) | – | 1.72 µM (inactive) |
| CCCCSN1C(=O)c2ccccc2C1=S | 32.6 µM (inactive) | 15.9 µM (inactive) | 73.5 µM (inactive) | 40.6 µM (inactive) | 22.9 µM (inactive) | 37.8 µM (inactive) | – | – | > 100 µM (inactive) | > 10 µM (inactive) | 33.3 µM (inactive) | > 100 µM (inactive) | 71.3 µM (inactive) | 72.4 µM (inactive) | – | 57.3 µM (inactive) | 55 µM (inactive) | – | 63.7 µM (inactive) | – |
| CC(=O)Nc1ccc2c(c1)C(=O)c1cccc(F)c1-2 | 41.1 µM (inactive) | 38.6 µM (inactive) | – | 24.2 µM (inactive) | 50.2 µM (inactive) | 0.401 µM (active) | 30.4 µM (inactive) | > 100 µM (inactive) | 43.9 µM (inactive) | 36.5 µM (inactive) | 0.0234 µM (active) | > 100 µM (inactive) | 42.2 µM (inactive) | 56.2 µM (inactive) | 24.9 µM (inactive) | 97.5 µM (inactive) | 38 µM (inactive) | – | > 100 µM (inactive) | 37.2 µM (inactive) |
| C=C(C)[C@H](O)C(O)CC(C)[C@@H]1CCC23CC12CCC1[C@@]2(C)CCC(OC(C)=O)C(C)(C)C2CC(OC2OC(COC(C)=O)C(O)C(O)C2O)[C@]13C (stereo not given in full) | 6.22 µM (inactive) | 2.62 µM (inactive) | 6.35 µM (inactive) | 3.8 µM (inactive) | 2.42 µM (inactive) | 5.47 µM (inactive) | – | – | 7.59 µM (inactive) | 4.35 µM (inactive) | 6.67 µM (inactive) | 8 µM (inactive) | 6.75 µM (inactive) | 3.4 µM (inactive) | – | 6.01 µM (inactive) | 3.84 µM (inactive) | – | 7.91 µM (inactive) | – |
| CC(C)NC(=O)OCc1c(COC(=O)NC(C)C)c(-c2ccc(Cl)c(Cl)c2)n2c1CCC2 | 20.9 µM (inactive) | 26.5 µM (inactive) | 43.6 µM (inactive) | 51.8 µM (inactive) | 46.1 µM (inactive) | 62.5 µM (inactive) | 84.7 µM (inactive) | > 100 µM (inactive) | 46.9 µM (inactive) | > 62.4 µM (inactive) | 43.5 µM (inactive) | 61.4 µM (inactive) | 49.4 µM (inactive) | 39.4 µM (inactive) | 50.5 µM (inactive) | 49.7 µM (inactive) | 39.8 µM (inactive) | – | 47.1 µM (inactive) | > 97.5 µM (inactive) |
